The record followed here is patent US7348140B1, “Clinical indications for genotyping polymorphic variants of G-protein coupled receptors” (Acadia Pharmaceuticals, Inc., priority 2001, dated 2008).

The target of assay [1] is histamine H2 receptor (Arginine 215 / Lysine 231) (Homo sapiens, UniProt P25021). Briefly: R-SAT functional assay, histamine H2 receptor wild type. The note with it: agonists and inverse agonists; for EC50: read-out: Ave −Log EC50 (converted). The format is cell-based.
Assay [2] concerns the target serotonin 7 receptor (Leucine 421) (Homo sapiens, UniProt P34969). Kind of assay: R-SAT functional assay, serotonin 7 receptor wild type. The conditions noted are these: Leucine 421 (wild type), inverse agonists, Table 20; for EC50: read-out: Ave −Log EC50 (converted). The format is cell-based.
The target in assay [3] is serotonin 7 receptor L421P (Proline 421) (Homo sapiens, UniProt P34969, L421P). Briefly: R-SAT functional assay, serotonin 7 receptor L421P. The format is cell-based. The note with it: Table 20; for EC50: read-out: Ave −Log EC50 (converted); for FOLD: shift in functional potency, Proline 421 vs Leucine 421.
The target of assay [4] is serotonin 1E receptor (Isoleucine 44 / Serine 262) (Homo sapiens, UniProt P28566). Kind of assay: cell-based.
The target of assay [5] is serotonin 1E receptor I44T (Threonine 44) (Homo sapiens, UniProt P28566, I44T). Kind of assay: cell-based.
Assay [6] concerns the target serotonin 1E receptor S262F (Phenylalanine 262) (Homo sapiens, UniProt P28566, S262F). Kind of assay: cell-based.
The target in assay [7] is T1, dopamine D2 receptor V208L (Leucine 208) (Homo sapiens, UniProt P14416, V208L).
T1 construct: expressed in transfected cells; host or cells: NIH-3T3
Briefly: R-SAT functional assay, dopamine D2 receptor V208L. The class given is cell-based.

Assay [8] deals with dopamine D2 receptor (Leucine 40 / Valine 208) (Homo sapiens, UniProt P14416). Kind of assay: R-SAT functional assay, dopamine D2 receptor wild type. The format is cell-based.
The target in assay [9] is T2, dopamine D2 receptor L40R (Arginine 40) (Homo sapiens, UniProt P14416, L40R).
T2 construct: expressed in transfected cells; host or cells: NIH-3T3
Kind of assay: R-SAT functional assay, dopamine D2 receptor L40R. The format is cell-based.

Assay [10] concerns the target T3, alpha 1A/C receptor I200S (Serine 200) (Homo sapiens, UniProt P35348, C347R/I200S/Q431E).
T3 construct: expressed in transfected cells; host or cells: NIH-3T3
T3 sequence (P35348 1-464 I200S/C347R/Q431E): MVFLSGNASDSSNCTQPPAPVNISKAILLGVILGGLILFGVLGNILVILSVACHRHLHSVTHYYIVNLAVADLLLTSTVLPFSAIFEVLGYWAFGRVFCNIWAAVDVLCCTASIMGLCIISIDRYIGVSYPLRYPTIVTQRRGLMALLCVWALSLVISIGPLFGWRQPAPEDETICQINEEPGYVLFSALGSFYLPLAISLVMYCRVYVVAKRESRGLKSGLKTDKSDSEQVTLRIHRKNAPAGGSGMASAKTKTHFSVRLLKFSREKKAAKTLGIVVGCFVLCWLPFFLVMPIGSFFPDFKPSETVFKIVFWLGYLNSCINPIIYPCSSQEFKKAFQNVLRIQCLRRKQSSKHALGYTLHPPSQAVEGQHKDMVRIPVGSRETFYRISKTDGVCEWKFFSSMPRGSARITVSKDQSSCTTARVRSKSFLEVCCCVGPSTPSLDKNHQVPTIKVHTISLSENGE
Kind of assay: R-SAT functional assay, alpha 1A/C receptor I200S. The format is cell-based. The conditions noted are these: Table 2; for EC50: Serine 200 (I200S), read-out: Ave −Log EC50 (converted); for FOLD: shift in functional potency, Serine 200 vs Isoleucine 200.

The target in assay [11] is T4, alpha 1A/C receptor G43C (Cysteine 43) (Homo sapiens, UniProt P35348, C347R/G43C/Q431E).
T4 construct: expressed in transfected cells; host or cells: NIH-3T3
Kind of assay: R-SAT functional assay, alpha 1A/C receptor G43C. The class given is cell-based. The note with it: Table 1.

Assay [12] has as its target T5, alpha 1A/C receptor (Glycine 43 / Isoleucine 200) (Homo sapiens, UniProt P35348, C347R/Q431E).
T5 construct: expressed in transfected cells; host or cells: NIH-3T3
T5 sequence (P35348 1-464 C347R/Q431E): T3 sequence (P35348 1-464 I200S/C347R/Q431E) with S200I
Briefly: R-SAT functional assay, alpha 1A/C receptor wild type. The conditions noted are these: read-out: Ave −Log EC50 (converted). The format is cell-based.

Assay [13] has as its target serotonin 2B receptor (Arginine 388) (Homo sapiens, UniProt P41595). Kind of assay: cell-based.
Assay [14] concerns the target serotonin 2B receptor R388W (Tryptophan 388) (Homo sapiens, UniProt P41595, R388W). Briefly: cell-based.
In assay [15] the target is T6, histamine H2 receptor K231R (Arginine 231) (Homo sapiens, UniProt P25021, K231R).
T6 construct: expressed in transfected cells; host or cells: NIH-3T3
Kind of assay: R-SAT functional assay, histamine H2 receptor K231R. The format is cell-based.

The target of assay [16] is T7, dopamine D1 receptor P79S (Serine 79) (Homo sapiens, UniProt P21728, P79S).
T7 construct: expressed in transfected cells; host or cells: NIH-3T3
Kind of assay: R-SAT functional assay, dopamine D1 receptor P79S. The note with it: Table 4. The class given is cell-based.

For assay [17], the target named is T8, dopamine D1 receptor S199A (Alanine 199) (Homo sapiens, UniProt P21728, S199A).
T8 construct: expressed in transfected cells; host or cells: NIH-3T3
Briefly: R-SAT functional assay, dopamine D1 receptor S199A. The class given is cell-based. The note with it: Table 5.

In assay [18] the target is T9, dopamine D1 receptor T37P (Proline 37) (Homo sapiens, UniProt P21728, T37P).
T9 construct: expressed in transfected cells; host or cells: NIH-3T3
Briefly: R-SAT functional assay, dopamine D1 receptor T37P. The class given is cell-based. The note with it: Table 3.

Assay [19] concerns the target dopamine D1 receptor (Threonine 37 / Proline 79 / Serine 199) (Homo sapiens, UniProt P21728). Kind of assay: R-SAT functional assay, dopamine D1 receptor wild type. The format is cell-based. The note with it: read-out: Ave −Log EC50 (converted).
Assay [20] has as its target T10, cholecystokinin B receptor L224Q (Glutamine 224) (Homo sapiens, UniProt P32239, E288K/L224Q).
T10 construct: expressed in transfected cells; host or cells: NIH-3T3
Briefly: R-SAT functional assay, cholecystokinin B receptor L224Q. The class given is cell-based.

For assay [21], the target named is Neuropeptide Y1 receptor, wild type (Histidine 298) (UniProt P25929). Kind of assay: cell-based or functional assay.
For assay [22], the target named is Neuropeptide Y1 receptor H298P variant (Proline 298) (UniProt P25929). Briefly: cell-based or functional assay.
Where [23] appears, read: Arginine 215 (wild type), Table 10.
Where [24] appears, read: Lysine 231 (wild type), Table 11.
[25] abbreviates: Proline 421 (L421P), inverse agonists.
[26] abbreviates: Isoleucine 200 (wild type), Table 2.

Changes are numbered by the printed parent chain. Several values for one entry are separate records, joined by “and”; a condition that tells them apart may be missing. Identical values can stand only once. Counter-ions that a name gives are not always drawn. Like-named read-outs stand apart in the source and are kept apart here.

What is called EC50 is the concentration at which the effect is half-maximal. On to `CN(C)CCCSC(=N)N`, for which the EC50 in assay [1] (setting [23]) is 234 nM. Moreover, the “Ave −Log EC50” value in assay [1] (setting [24]) was 6.63.

Turning to `OCCN1CCN([C@@H]2C[C@@H](c3ccc(F)cc3)c3ccc(C(F)(F)F)cc32)CC1` (racemic) [Tefludazine], the EC50 in [2] is 0.417 nM; in [3] (setting [25]) it was 11.2 nM. Moreover, the FOLD in assay [3] came to 27.0 fold.

As to `CN1CCC(c2c[nH]c3ccc(O)cc23)CC1.O=C(O)/C=C\C(=O)O` [BRL54443, 3-(1-Methylpiperidin-4-yl)-1H-indole-5-ol maleate], in assay [4], the “Ave −Log EC50” value is 7.53 and the EC50 was 29.5 nM. In assay [5], this molecule had an EC50 of 1480 nM and an FOLD of 50 fold. Besides, in [6], the response was half-maximal at 174 nM (EC50) and the FOLD amounted to 5.9 fold.

Consider `CC(C)C[C@H]1C(=O)N2CCC[C@H]2[C@]2(O)O[C@](NC(=O)[C@@H]3C=C4c5cccc6[nH]c(Br)c(c56)C[C@H]4N(C)C3)(C(C)C)C(=O)N12` [Bromocriptine], for which the EC50 in assay [7] was 0.295 nM; in [8] (Ave −Log EC50) it was 0.447 nM and 1.66 nM; in assay [9] it was 47.9 nM.

Consider `c1ccc(C2CC2)c(OCC2=NCCN2)c1` [Cirazoline], for which the EC50 in assay [10] was 47.9 nM; in assay [11] (Cysteine 43 (G43C), read-out: Ave −Log EC50 (converted)), 14.5 nM; in assay [12] (Glycine 43 (wild type), Table 1), 42.7 nM; in assay [12] (setting [26]), 15.5 nM. For the same molecule, the FOLD is 3.1 fold in [10] and −3.0 fold in assay [11] (shift in functional potency, Cysteine 43 vs Glycine 43).

Take `OCCN1CCN(CC/C=C2/c3ccccc3Sc3ccc(C(F)(F)F)cc32)CC1` [Cis-flupenthixol]: the “Ave −Log EC50” value is on record as 8.05 in assay [2] and 7.61 in assay [3] (setting [25]). For the same molecule, in assay [3], the FOLD is reported as 2.8 fold.

Consider `CN1C[C@H](C(=O)N[C@]2(C)O[C@@]3(O)[C@@H]4CCCN4C(=O)[C@H](Cc4ccccc4)N3C2=O)C[C@@H]2c3cccc4[nH]cc(c34)C[C@H]21` [Dihydroergotamine, dihydroergotamine], for which the EC50 in assay [13] was 0.0933 nM; in assay [7], 0.0513 nM; in assay [8] (Ave −Log EC50) it was 0.0513 nM and 0.269 nM; in assay [14] it was 1.17 nM; in assay [9], 24.5 nM. The FOLD in assay [7] is given as −5.2 fold; in assay [14], 2.5 fold; in assay [9] it was 479 fold.

Turning to `CC(CCc1ccc(O)cc1)NCCc1ccc(O)c(O)c1` (stereo not drawn) [Dobutamine], the EC50 in [10] was 2140 nM; in assay [12] (setting [26]) it was 550 nM. The FOLD in assay [10] is reported as 3.9 fold.

Regarding `OCCN1CCN(CCCN2c3ccccc3Sc3ccc(C(F)(F)F)cc32)CC1` [Fluphenazine], the EC50 was 6.76 nM in assay [2] and 38.9 nM in assay [3] (setting [25]). The FOLD in assay [3] is 5.8 fold.

For `CN1C[C@@H](NS(=O)(=O)N(C)C)C[C@@H]2c3cccc4c3c(cn4C)C[C@H]21` [Mesulergine], the EC50 in assay [7] (Leucine 208 (V208L), Table 7, read-out: Ave −Log EC50 (converted)) is 2.14 nM; in assay [8] (Leucine 40 (wild type), Table 6, read-out: Ave −Log EC50 (converted)), 3.55 nM; in assay [8] (Valine 208 (wild type), Table 7, read-out: Ave −Log EC50 (converted)) it was 6.92 nM.

Regarding `CNCCC=C1c2ccccc2CCc2ccccc21` [Nortryptiline], the EC50 in assay [13] (Arginine 388 (wild type), Table 19, read-out: Ave −Log EC50 (converted)) was 39.8 nM.

With `COc1ccc(C2CNC(=O)C2)cc1OC1CCCC1` (stereo not drawn) [ROLIPRAM], in [15], the EC50 is 692 nM and the FOLD is on record as 1.6 fold. Further, the EC50 in [1] (setting [23]) is 437 nM. In addition, the “Ave −Log EC50” value in [1] (setting [24]) was 6.36.

Take `CN1CCc2c(cc(O)c(O)c2Cl)C(c2ccccc2)C1` (stereo not drawn) [SKF82957, R(+)-6-Chloro-7,8-dihydroxy-3-methyl-1-phenyl-2,3,4,5-tetrahydro-1H-3-benzazapine hydrobromide]: the EC50 is 4570 nM in [16] (Serine 79 (P79S), read-out: Ave −Log EC50 (converted)); 955 nM in assay [17] (Alanine 199 (S199A), read-out: Ave −Log EC50 (converted)); 955 nM in assay [18] (Proline 37 (T37P), read-out: Ave −Log EC50 (converted)); 34.7 nM in [19] (Proline 79 (wild type), Table 4); 91.2 nM in [19] (Serine 199 (wild type), Table 5); 91.2 nM in assay [19] (Threonine 37 (wild type), Table 3). The FOLD in assay [16] (shift in functional potency, Serine 79 vs Proline 79) was found to be 132 fold; in [17] (shift in functional potency, Alanine 199 vs Serine 199), 11 fold; in [18] (shift in functional potency, Proline 37 vs Threonine 37), 11 fold.

Consider `CN1CCN(CC/C=C2/c3ccccc3Sc3ccc(S(=O)(=O)N(C)C)cc32)CC1` [Thiothixene], for which the EC50 was 6.92 nM in assay [2] and 21.9 nM in assay [3] (setting [25]). The FOLD in assay [3] stood at 3.2 fold.

Regarding ANTHAMINE, the “Ave −Log EC50” value amounted to 7.29 in assay [15] (Arginine 231 (K231R), agonists and inverse agonists, Table 11); 7.81 in assay [1] (setting [23]); 7.82 in assay [1] (setting [24]).

As for CCK-4, the FOLD in [20] is −12.0 fold.

Turning to CCK-8-Sulfated, the FOLD in assay [20] is given as −3.0 fold.

In the case of “Leu/Pro NPY (from UniProt P01303 29-97) (peptide)”, the Ave -Log EC50, R-SAT functional potency in [21] is 7.5 -log EC50.

As for “PEPTIDE YY (HUMAN) (from UniProt P10082 29-64)”, the Ave -Log EC50, R-SAT functional potency was 9.94 -log EC50 in assay [21] and 6.91 -log EC50 in [22]. Moreover, in assay [22], the FOLD (shift in functional potency against wild type) worked out at 1070 fold.
